In US4119784A, “Anionic substituted sulfonamido biphenyls” (American Cyanamid Company, priority 1977, dated 1978):
Structures can show the parent of a compound that is named as a salt.

What was measured:
Format in all cases: biochemical
activated human C1 = test: Test, Code 026 (C1 inhibitor); settings: activity in wells of a two-fold serial dilution assay; higher well number indicates higher activity
Text: (§1) An active inhibitor protects C2 from C1 and C4; (ii) Test, Code 035 (C3-C9 inhibitor)--This test determines the ability of the late components of human complement (C3-C9) to lyse EAC 142 in the presence of appropriate dilutions of the test compound. An active inhibitor protects EAC 142 from lysis by human C3-C9; (iii) Test, Code 036 (C-Shunt inhibitor)--In this test human erythrocytes rendered fragile are lysed in autologous serum via the shunt pathway activated by cobra venom factor in the presence of appropriate dilutions of the test compound. Inhibition of the shunt pathway results in failure of lysis; (iv) Forssman Vasculitis Test--Here, the well known complement dependent lesion, Forssman vasculitis, is produced in guinea pigs by intradermal injection of rabbit anti-Forssman antiserum. […]

[1] = tested on: late components of human complement (C3-C9); test: Test, Code 035 (C3-C9 inhibitor); parameters: key: N = Negative; settings: protection of EAC 142 from lysis by human C3-C9; two-fold serial dilution assay
Text: as §1

[2] = tested on: shunt pathway activated by cobra venom factor; test: Test, Code 036 (C-Shunt inhibitor); settings: human erythrocytes in autologous serum; two-fold serial dilution assay; higher well number indicates higher activity
Text: as §1

O=C(O)c1cc(NS(=O)(=O)c2ccc(-c3ccc(S(=O)(=O)Nc4cc(C(=O)O)cc(C(=O)O)c4)cc3S(=O)(=O)Nc3cc(C(=O)O)cc(C(=O)O)c3)c(S(=O)(=O)Nc3cc(C(=O)O)cc(C(=O)O)c3)c2)cc(C(=O)O)c1 [5,5',5",5'"-[2,2',4,4'-Biphenyltetrayltetrakis(sulfonylimino)[tetraisophthalic acid octasodium salt]
Cl 026 Wells (activated human C1): +7 Wells
C-Late 035 Wells [1]: N
Shunt Inhibition 036 Wells [2]: +3 Wells
